Laboratory results as given in article PMC8467532, “DYRK1A Kinase Inhibitors Promote β-Cell Survival and Insulin Homeostasis” (Cells, 2021).

Columns and labels:
DYRK1A kinase domain = biological target: T1, DYRK1A kinase domain (Homo sapiens, UniProt Q13627); experiment: MST direct binding assay
T1 construct: kinase domain of DYRK1A (126–490) was cloned into pET24a with C-terminal His-tag; made in house; host or cells: E. coli BL21 (DE3) RIL

DYRK1A = biological target: T2, DYRK1A (Homo sapiens, UniProt Q13627); experiment: Cook activity assay (ATP regenerative NADH consuming DYRK1A activity assay); format: biochemical
T2 construct: kinase domain of DYRK1A (126–490) was cloned into pET24a with C-terminal His-tag; His-tag (C); made in house; host or cells: E. coli BL21 (DE3) RIL

DYRK1A in MIN6 cell line = experiment: DYRK1A expression by flow cytometry and confocal imaging; format: cell-based, mouse
Experimental: The presence of insulin, glucagon, C-peptide, Ki67, and DYRK1A was assessed in MIN6 and INS-1E pancreatic cell lines. Before imaging, cells were seeded onto slides at a density of 1 × 10^5 cells and maintained at 37 °C in 95% atmospheric air and 5% CO2 in a humidified atmosphere for 24 h. After washing with fresh medium, cells were incubated with 5 µM inhibitor solution for 24 h. After this time, the solution was replaced with a culture medium for another 48 h. The cells were fixed. Then after washing and permeabilization, they were incubated with specific antibodies diluted in PBS. Next, the cells were incubated for 10 min with Hoechst33342 (Sigma-Aldrich). After incubation, at 37 °C, in the dark, the cells were washed twice with HBSS (Gibco), the slide was transferred to a microscope table, and the cells were visualized under a Zeiss LSM 880 confocal microscope (Carl Zeiss, Jena, Germany) with a 63× immersion objective. Images were analyzed by Zeiss ZEN Software.
The presence of insulin, glucagon, C-peptide, Ki67 and DYRK1A was assessed in MIN6 and INS-1E pancreatic cell lines. Before analysis, cells were seeded onto slides at a density of 1 × 10^5 cells and maintained at 37 °C in 95% atmospheric air and 5% CO2 in a humidified atmosphere for 24 h. After washing with fresh medium, cells were incubated with 5 µM inhibitor solution for 24 h. After this time, the solution was replaced with a culture medium for another 48 h. The cells were then detached from the plate using trypsin. The cells were fixed. Then after washing and permeabilization, they were incubated with specific antibodies diluted in PBS. Cells were analyzed with BDAccuri flow cytometer and calculated using FlowJo software (Ashland, Oregon-based FlowJo LLC, a subsidiary of Becton Dickinson).

INS-1E and MIN6 cells = experiment: Ki67 proliferation analysis; format: cell-based, rat, mouse
INS-1E cells = experiment: Cell cycle analysis (propidium iodide); format: cell-based, rat; settings: 5 µM, 24 h
Experimental: To synchronize cell cultures, we used the serum starvation protocol. INS-1E cells were seeded in a 6-well plate in a growth medium with 20% FBS overnight. Then the cultures were rinsed by PBS and change to a serum-free medium. After serum starvation for 24 h, cells were released into the cell cycle by the addition of serum and 5 µM inhibitor solution for 24 h. The cells were then detached from the plate using trypsin. Then after washing, they were incubated with 50 µg/mL propidium iodide for 15 min in the dark. Cells were analyzed with the BDAccuri flow cytometer and calculated using FlowJo software.

[1] = test system: hiPSC-derived pancreatic organoids; experiment: Insulin secretion assay in hiPSC-derived β-cell organoids (ELISA); format: cell-based, human; set-up: key to insulin secretion (ELISA): ↑: moderate; ↑↑: most potent
Experimental: Differentiation of hiPSC into iPSC-derived β-cell islets was carried out following the protocol established by Pellegrini et al. for pluripotent stem cells with slight modifications. A day before differentiation, 800,000 cells were seeded on coated with Geltrex (Gibco) 12 wells plate in Essential 8 medium (Gibco) with Y-27632 10 µM (Abcam). The following culture media were used for differentiation:
M1 medium: MCDB131 (Gibco) + 8 mM D-(þ)-Glucose (Sigma) + 1.23 g/L NaHCO3 (Sigma) + 2% BSA (Sigma) + 0.25 mM Vitamin C (Sigma) + 1% Pen/Strep (Lonza, Basel, Switzerland) + 1% L-glutamine (Lonza);
M2 medium: MCDB131 + 20 mM D-Glucose + 1.754 g/L NaHCO3 + 2% BSA + 0.25 mM Vitamin C + Heparin 10mg/mL (Sigma) + 1% Pen/Strep + 1% L-glutamine. All media were filter-sterilized through a 0.22 µm bottle top filter (Corning, New York, NY, USA). For sequential culture medium changes, small molecules and growth factors were added to the base media immediately before daily exchange. Media switches were as follows: days 0–3: STEMdiff™ Definitive Endoderm Kit ([…], Vancouver, Canada) used following manufacturer instructions; days 4–6: M1 medium + 50 ng/mL KGF (Peprotech, London, UK) + 1:50,000 ITS-X (Invitrogen, Carlsbad, CA, USA); days 7–8: M1 medium + 50 ng/mL KGF + 0.25 µM Sant1 (Sigma) + […] Retinoic acid (RA) (Sigma) + 500 nM PdBU (Millipore, Berlington, MA, United States) + 1:200 ITS-X + 200 nM LDN193189 (only Day 7) (Sigma); days 9–13: M1 medium + 50 ng/mL KGF + 0.25 µM Sant1 + 100 nM RA + 1:200 ITS-X; days 14–18: M2 medium + 0.25 µM Sant1 + 100 nM RA + 1 µM XXI (Millipore) + 10 µM Alk5i II (Selleckchem, Munich, Germany) + 1 µM L-3,30,5-Triiodothyronine (T3) (Sigma) + 20 ng/mL Betacellulin (R&D, Minneapolis, MN, USA) + 1:200 ITS-X.
The Insulin ELISA (Ultra Sensitive) was used to quantify insulin levels in control and treated organoids and isolated islets from the mouse pancreas (Crystal Chem, Downers Grove, IL, USA). Islets were homogenized in lysis buffer. Obtained buffer lysates and medium samples (after GSIS) were analyzed for total protein level and subsequently processed following the manufacturer’s protocol.

[2] = Table 2, Biochemistry, unit inferred

Kd (DYRK1A kinase domain; MST direct binding, 20 nM fluorescent-labelled DYRK1A kinase domain): 1800 ± 500 nM
Kd (DYRK1A kinase domain; [2]): 1830 ± 543 nM
Ki (DYRK1A; Cook assay, DYRK1A 0.5 µM, ATP 128 µM, DYRKtide 1 mM): 200 ± 300 nM
Ki (DYRK1A; Cook assay, phosphorylation of substrate peptide): < 200 nM
Ki (DYRK1A; [2]): 170 ± 260 nM
SMILES: O=c1ccc2cnc3ccc(-c4cn[nH]c4)cc3c2n1-c1ccc(F)cc1C(F)(F)F [AC27, 1-(4-fluoro-2-(trifluoromethyl)phenyl)-9-(1H-pyrazol-4-yl)benzo[h][1, 6]naphthyridin-2-one]
DYRK1A (fluorescence-positive cells, flow cytometry) (DYRK1A in MIN6 cell line; MIN6, 24 h with inhibitor, control 74%): 33%
DYRK1A signal in confocal imaging (DYRK1A in MIN6 cell line; MIN6, vs untreated control): reduced
induction of β-cell proliferation (Ki67 labeling of insulin-labeled cells) (INS-1E and MIN6 cells; 5 μM, vs untreated cells): most potent in inducing β-cell proliferation
Ki67 labeling index in β-cells (INS-1E and MIN6 cells; combined with RepSox or LY364947): significant increase in the Ki67 labeling index
Ki67 labeling index, difference to that without TGF-β inhibition (INS-1E and MIN6 cells; combined with TGF-β inhibitors): about 5%
Ki67 labeling index (proliferation rate) (INS-1E and MIN6 cells; combined with TGF-β inhibitors (RepSox, LY364947), 5 μM each): > 12%
number of cells in the G2/M phase (INS-1E cells): increase
insulin release ([1]; GSIS, compared with untreated control cells): markedly increased insulin release
insulin secretion (ELISA) ([1]; Table 2, hiPSC): ↑
